{"source": "patent US9422254B2", "about": "“Methoxyacrylate-based fungicide and methods for preparing and using the same” (priority 2008, dated 2016)", "format_in_all_cases": "biochemical", "key": {"[1]": {"target": "succinate-cytochrome C oxidase (SCO) (Sus scrofa, UniProt P24964)", "sequence (P24964 whole entry)": "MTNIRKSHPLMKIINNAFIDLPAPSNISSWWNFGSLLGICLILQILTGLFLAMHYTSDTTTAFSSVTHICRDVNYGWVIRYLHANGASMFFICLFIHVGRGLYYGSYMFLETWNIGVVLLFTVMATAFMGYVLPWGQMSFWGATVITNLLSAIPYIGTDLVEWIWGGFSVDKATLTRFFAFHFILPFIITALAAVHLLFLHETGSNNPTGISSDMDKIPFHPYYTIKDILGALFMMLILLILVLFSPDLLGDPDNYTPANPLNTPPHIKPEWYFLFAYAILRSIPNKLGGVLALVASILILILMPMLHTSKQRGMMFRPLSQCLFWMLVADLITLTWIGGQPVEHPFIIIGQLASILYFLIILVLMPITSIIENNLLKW", "experiment": "Enzyme activity test, SCO", "experimental": "(§1) Take NADH oxidase (NOX), succinate-cytochrome C oxidase (SCO), and Complex III as target enzymes, the inhibitory activity of the compound of Formula (I) was tested.\n(§2) ^a NOX is generally used to detect an inhibitor of Complex I and Complex III; SCO is generally used to detect an inhibitor of Complex II and Complex III. Thus, an inhibitor of Complex III should have inhibitory activity on the two enzymes."}, "[2]": {"target": "T1, cytochrome bc1 complex of pig heart (Sus scrofa, UniProt P24964)", "T1 construct": "The test target is cytochrome bc1 complex of pig heart; from tissue; host or cells: pig heart", "T1 sequence (P24964 whole entry, one chain of several)": "as the sequence (P24964 whole entry) above", "experiment": "Enzyme activity test, Complex III", "conditions": "cytochrome bc1 complex of pig heart; read-out: IC50 (nM) Complex III", "experimental": "as §1\n^b The test target is cytochrome bc1 complex of pig heart."}, "NADH oxidase (NOX)": {"target": "NADH oxidase (NOX) (Sus scrofa, UniProt P24964)", "sequence (P24964 whole entry)": "as above", "experiment": "Enzyme activity test, NOX", "experimental": "as §1, §2"}}}
{"smiles": "CO/C=C(/C(=O)OC)c1ccccc1Oc1cc(Oc2ccccc2C#N)ncn1", "note": "[Azoxystrobin, azoxystrobin, reference compound]", "values": [{"measurement": "IC50", "setting": "[1]", "value": 13, "unit": "nM"}, {"measurement": "IC50", "setting": "[2]", "value": 200, "unit": "nM"}, {"measurement": "IC50", "setting": "NADH oxidase (NOX)", "value": 27, "unit": "nM"}]}
